Data taken from US20110182850A1, “ORGANIC COMPOUNDS AND THEIR USES” (priority 2009, published 2011).
Read-outs that look alike come from different tables or passages of the source.

Molecular target: T1, HCV NS3-4A serine protease (full-length NS3-4A protein, genotype 1a, strain HCV-1) (Hepatitis C virus genotype 1a, UniProt P26664)
T1 construct: using the full-length NS3-4A protein (genotype 1a, strain HCV-1)
Assay: HCV NS3-4A protease assay
Type: biochemical
Method: The inhibitory activity of certain compounds of Table A against HCV NS3-4A serine protease is determined in a homogenous assay using the full-length NS3-4A protein (genotype 1a, strain HCV-1) and a commercially available internally-quenched fluorogenic peptide substrate as described by Taliani, M., et al. 1996 Anal. Biochem. 240:60-67, which is incorporated by reference in its entirety.

T1 sequence (P26664 1658-1711): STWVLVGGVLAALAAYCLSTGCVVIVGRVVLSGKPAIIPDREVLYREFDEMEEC
T1 sequence (P26664 1027-1657): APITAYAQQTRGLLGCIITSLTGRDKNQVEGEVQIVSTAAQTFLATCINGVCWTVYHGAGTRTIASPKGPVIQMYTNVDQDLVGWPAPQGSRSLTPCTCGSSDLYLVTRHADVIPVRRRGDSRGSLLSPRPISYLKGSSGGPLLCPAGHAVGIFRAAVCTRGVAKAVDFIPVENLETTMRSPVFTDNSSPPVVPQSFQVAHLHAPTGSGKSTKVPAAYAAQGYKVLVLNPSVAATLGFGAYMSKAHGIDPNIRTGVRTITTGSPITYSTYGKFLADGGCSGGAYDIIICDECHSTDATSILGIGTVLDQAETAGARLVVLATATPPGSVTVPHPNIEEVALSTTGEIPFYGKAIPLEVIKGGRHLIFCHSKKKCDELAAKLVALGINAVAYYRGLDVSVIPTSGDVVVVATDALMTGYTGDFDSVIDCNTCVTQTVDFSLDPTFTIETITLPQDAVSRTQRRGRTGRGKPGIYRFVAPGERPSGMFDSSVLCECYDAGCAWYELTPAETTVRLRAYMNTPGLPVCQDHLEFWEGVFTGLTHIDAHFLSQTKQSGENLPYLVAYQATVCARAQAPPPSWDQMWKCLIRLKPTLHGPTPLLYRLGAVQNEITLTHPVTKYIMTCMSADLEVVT

| IC50 (read-out: Protease IC50) [nM] | SMILES | IC50 (Protease IC50) [nM] |
| --- | --- | --- |
| 100 | C=C[C@@H]1C[C@]1(NC(=O)[C@@H]1C[C@@]2(CN1C(=O)[C@@H](NC(=O)OC(C)(C)C)C(C)C)C(C)(C)C21CCC1)C(=O)NS(=O)(=O)C1CC1 [Compound 1, tert-butyl [(1S)-1-{[(5R,8S)-8-({(1R,2S)-1-[(cyclopropylsulfonyl)carba-moyl]-2-vinylcyclopropyl}carbamoyl)-10,10-dimethyl-7-azadispiro[3.0.4.1]dec-7-yl]carbonyl}-2-methylpropyl]carbamate] |  |
|  | CCCC(NC(=O)[C@@H]1C[C@@]2(CN1C(=O)C(NC(=O)[C@@H](NC(=O)C(C)(C)N1CCCC1)C1CCCCC1)C(C)(C)C)C(C)(C)C21CCC1)C(=O)NS(=O)(=O)C1CC1 (stereo partly drawn) [Compound 2, (5R,8S)-7-[2-({(2S)-2-cyclohexyl-2-[(2-methyl-2-pyrrolidin-1-ylpropanoyl)amino]acetyl}amino)-3,3-dimethylbutanoyl]-N-{1-[(cyclopropylsulfonyl)carba-moyl]butyl}-10,10-dimethyl-7-azadispiro[3.0.4.1]decane-8-carboxamide] | 2250 |
|  | CC(C)(C)[C@H](NC(=O)[C@@H](NC(=O)C(C)(C)N1CCCC1)C1CCCCC1)C(=O)N1C[C@]2(C[C@H]1C(=O)NC1(C(=O)NS(=O)(=O)C3CC3)CC1)C(C)(C)C21CCC1 [Compound 3, (5R,8S)-7-[(2S)-2-({(2S)-2-cyclohexyl-2-[(2-methyl-2-pyrrolidin-1-ylpropanoyl)amino]acetyl}amino)-3,3-dimethylbutanoyl]-N-{1-[(cyclopropylsulfonyl)carba-moyl]cyclopropyl}-10,10-dimethyl-7-azadispiro[3.0.4.1]decane-8-carboxamide] | 45 |
|  | C=C[C@@H]1C[C@]1(NC(=O)[C@@H]1C[C@@]2(CN1C(=O)[C@@H](NC(=O)[C@@H](NC(=O)[C@@H]1CCCCN1C(C)C)C(C)(C)C)C(C)(C)C)C(C)(C)C21CCC1)C(=O)NS(=O)(=O)c1cccc2cc[nH]c12 [Compound 4, (5R,8S)-N-{(1R,2S)-1-[(1H-indol-7-ylsulfonyl)carbamoyl]-2-vinylcyclopropyl}-7-[(2S)-2-{[(2S)-2-({[(2S)-1-isopropylpiperidin-2-yl]carbonyl}amino)-3,3-dimethylbutanoyl]amino}-3,3-dimethylbutanoyl]-10,10-dimethyl-7-azadispiro[3.0.4.1]decane-8-carboxamide] | 0.8 |
|  | C=C[C@@H]1C[C@]1(NC(=O)[C@@H]1C[C@@]2(CN1C(=O)C(NC(=O)[C@@H](NC(=O)OC(C)(C)C)C(C)(C)C)C(C)(C)C)C(C)(C)C21CCC1)C(=O)NS(=O)(=O)c1ccccc1 (stereo partly drawn) [Compound 5, tert-butyl {(1S)-1-[(1-{[(5R,8S)-10,10-dimethyl-8-({(1R,2S)-1-[(phenylsulfonyl)carbamoyl]-2-vinylcyclopropyl}carbamoyl)-7-azadispiro[3.0.4.1]dec-7-yl]carbonyl}-2,2-dimethylpropyl)carbamoyl]-2,2-dimethylpropyl}carbamate] | 1950 |
|  | C=C[C@@H]1C[C@]1(NC(=O)[C@@H]1C[C@@]2(CN1C(=O)[C@@H](NC(=O)[C@@H](NC(=O)OC(C)(C)C)C(C)(C)C)C(C)(C)C)C(C)(C)C21CCC1)C(=O)NS(=O)(=O)C1CC1 [Compound 6, tert-butyl [(1S)-1-{[(1S)-1-{[(5R,8S)-8-({(1R,2S)-1-[(cyclopropylsulfonyl)carba-moyl]-2-vinylcyclopropyl}carbamoyl)-10,10-dimethyl-7-azadispiro[3.0.4.1]dec-7-yl]carbonyl}-2,2-dimethylpropyl]carbamoyl}-2,2-dimethylpropyl]carbamate] | 80 |
| 100 | C=C[C@@H]1C[C@]1(NC(=O)[C@@H]1C[C@@]2(CN1C(=O)[C@@H](NC(=O)CC1CCCCC1)C(C)(C)C)C(C)(C)C21CCC1)C(=O)NS(=O)(=O)C1CC1 [Compound 7, (5R,8S)-7-{(2S)-2-[(cyclohexylacetyl)amino]-3,3-dimethylbutanoyl}-N-{(1R,2S)-1-[(cyclopropylsulfonyl)carba-moyl]-2-vinylcyclopropyl}-10,10-dimethyl-7-azadispiro[3.0.4.1]decane-8-carboxamide] |  |
|  | C=C[C@@H]1C[C@]1(NC(=O)[C@@H]1C[C@@]2(CN1C(=O)[C@@H](NC(=O)[C@@H](NC(=O)[C@@H]1CCCN(CCF)C1)C(C)(C)C)C(C)(C)C)C(C)(C)C21CCC1)C(=O)NS(=O)(=O)C1CC1 [Compound 8, (5R,8S)-N-{(1R,2S)-1-[(cyclopropylsulfonyl)carba-moyl]-2-vinylcyclopropyl}-7-[(2S)-2-{[(2S)-2-({[(3R)-1-(2-fluoroethyl)piperidin-3-yl]carbonyl}amino)-3,3-dimethylbutanoyl]amino}-3,3-dimethylbutanoyl]-10,10-dimethyl-7-azadispiro[3.0.4.1]decane-8-carboxamide] | 25 |
|  | C=C[C@@H]1C[C@]1(NC(=O)[C@@H]1C[C@@]2(CN1C(=O)[C@@H](NC(=O)[C@@H](NC(=O)[C@@H]1CCCCN1CCF)C(C)(C)C)C(C)(C)C)C(C)(C)C21CCC1)C(=O)NS(=O)(=O)C1CC1 [Compound 9, (5R,8S)-N-{(1R,2S)-1-[(cyclopropylsulfonyl)carba-moyl]-2-vinylcyclopropyl}-7-[(2S)-2-{[(2S)-2-({[(2S)-1-(2-fluoroethyl)piperidin-2-yl]carbonyl}amino)-3,3-dimethylbutanoyl]amino}-3,3-dimethylbutanoyl]-10,10-dimethyl-7-azadispiro[3.0.4.1]decane-8-carboxamide] | 8 |
| 25 | C=C[C@@H]1C[C@]1(NC(=O)[C@@H]1C[C@@]2(CN1C(=O)[C@@H](NC(=O)OC1CCCC1)C(C)(C)C)C(C)(C)C21CCC1)C(=O)NS(=O)(=O)C1CC1 [Compound 10, cyclopentyl [(1S)-1-{[(5R,8S)-8-({(1R,2S)-1-[(cyclopropylsulfonyl)carba-moyl]-2-vinylcyclopropyl}carbamoyl)-10,10-dimethyl-7-azadispiro[3.0.4.1]dec-7-yl]carbonyl}-2,2-dimethylpropyl]carbamate] |  |
| 200 | C=C[C@@H]1C[C@]1(NC(=O)[C@@H]1C[C@@]2(CN1C(=O)[C@@H](NC(=O)c1ccc3cnccc3n1)C(C)(C)C)C(C)(C)C21CCC1)C(=O)NS(=O)(=O)C1CC1 [Compound 11, (5R,8S)-N-{(1R,2S)-1-[(cyclopropylsulfonyl)carba-moyl]-2-vinylcyclopropyl}-7-{(2S)-3,3-dimethyl-2-[(1,6-naphthyridin-2-ylcarbonyl)amino]butanoyl}-10,10-dimethyl-7-azadispiro[3.0.4.1]decane-8-carboxamide] |  |
| 400 | C=C[C@@H]1C[C@]1(NC(=O)[C@@H]1C[C@@]2(CN1C(=O)[C@@H](NCc1nc3ccccc3n1C)C(C)(C)C)C(C)(C)C21CCC1)C(=O)NS(=O)(=O)C1CC1 [Compound 12, (5R,8S)-N-{(1R,2S)-1-[(cyclopropylsulfonyl)carba-moyl]-2-vinylcyclopropyl}-7-[(2S)-3,3-dimethyl-2-{[(1-methyl-1H-benzimidazol-2-yl)methyl]amino}butanoyl]-10,10-dimethyl-7-azadispiro[3.0.4.1]decane-8-carboxamide] |  |
| 250 | C=C[C@@H]1C[C@]1(NC(=O)[C@@H]1C[C@@]2(CN1C(=O)[C@@H](NS(=O)(=O)c1nccn1C)C(C)(C)C)C(C)(C)C21CCC1)C(=O)NS(=O)(=O)C1CC1 [Compound 13, (5R,8S)-N-{(1R,2S)-1-[(cyclopropylsulfonyl)carba-moyl]-2-vinylcyclopropyl}-7-[(2S)-3,3-dimethyl-2-{[(1-methyl-1H-imidazol-2-yl)sulfonyl]amino}butanoyl]-10,10-dimethyl-7-azadispiro[3.0.4.1]decane-8-carboxamide] |  |
